{
  "source": "patent US9732076B2",
  "about": "“Solid oral dosage formulation of HCV inhibitor in the amorphous state” (Boehringer Ingelheim International GmbH, priority 2013, dated 2017)",
  "test": "Ames test / genotoxicity of degradation product",
  "data": [
    {"compound": "C=C[C@@H]1C[C@]1(N)C(=O)O", "note": "[Compound X]", "values": [
      {"measurement": "Ames result / genotoxicity", "result": "Ames positive"}
    ]}
  ]
}
